Consider three molecules from US20220211680A1, “COMPOUNDS AND COMPOSITIONS FOR TARGETING MACROPHAGES AND OTHER MANNOSE-BINDING C-TYPE LECTIN RECEPTOR HIGH EXPRESSING CELLS AND METHODS OF TREATING AND DIAGNOSIS USING SAME” (priority 2014, published 2022).

The test system of assay [1] is CD206 expressing macrophages. As to the kind of experiment: Apoptosis induction (Annexin-V) in MOs and KS tumor tissue. The class given is cell-based.
Procedure: (§1) CD206 targeting assays were conducted using both in vitro monocyte-derived CD206+ macrophages (MOs) and ex vivo fresh Kaposi Sarcoma (KS) tumor tissue (provided by the AIDS and Cancer Specimen Resource [ACSR]). Tilmanocept-Cy3 with/without a chemo-therapeutic agent (CTA) attached (tilmanocept-Cy3-CTA or tilmanocept-Cy3) interactions with cellular and tumor targets were tracked by flow cytometry and immuno-histochemistry to evaluate Cy3-tilmanocept uptake and targeting capability for delivery of drug into KS tumor cells and TAMs.
Assay [2] addresses DC-SIGN (CD209) (Homo sapiens, UniProt Q9NNX6). Conditions: AF488-labeled tilmanocept, anti-DC-SIGN Ab staining.
Procedure: The tissue sections were first deparaffinized with xylene, followed by rehydration with graded alcohols (100%, 95%). A heat-induced epitope retrieval procedure was carried out by heating the tissue slides in citrate buffer (pH 6.0) at 95° C. for 10 min (31). Each tissue section was rehydrated with PBS buffer, blocked (5% non-fat dry milk in PBS+0.01% sodium azide) for 3 h at room temperature, and then incubated with specific primary Abs using manufacturer-recommended dilutions in a humidified chamber at 4° C. overnight. After extensive washing with PBS, the sections were counter-stained with AF488-conjugated anti-mouse and AF549-conjugated anti-rabbit secondary Abs (double staining) for 1 h at room temperature. The sections were washed again extensively and stained with the nuclear DNA stain DAPI for 10 min at room temperature. After washing and drying at room temperature, the slides were examined by a Flow View 1000 Laser Scanning Confocal microscope (Olympus). The MFI of a randomly selected group of confocal images was quantified using a pixel intensity measurement (NIH Image J program).
FFPE lymph node tissue sections were subjected to the antigen retrieval procedure (see immunohistochemistry method above) followed by incubation with AF488-labeled tilmanocept and staining with anti-DC-SIGN Ab.
The test system of assay [3] is fresh Kaposi Sarcoma (KS) tumor tissue.
Procedure: as §1
Assay [4] concerns luciferase-expressing M tuberculosis H37Rv strain (M.tb-Lux). Put plainly: Anti-bacterial activity against M.tb in human macrophages (luminescence). The class given is cell-based.

Sequence of DC-SIGN (CD209) (Q9NNX6 whole entry): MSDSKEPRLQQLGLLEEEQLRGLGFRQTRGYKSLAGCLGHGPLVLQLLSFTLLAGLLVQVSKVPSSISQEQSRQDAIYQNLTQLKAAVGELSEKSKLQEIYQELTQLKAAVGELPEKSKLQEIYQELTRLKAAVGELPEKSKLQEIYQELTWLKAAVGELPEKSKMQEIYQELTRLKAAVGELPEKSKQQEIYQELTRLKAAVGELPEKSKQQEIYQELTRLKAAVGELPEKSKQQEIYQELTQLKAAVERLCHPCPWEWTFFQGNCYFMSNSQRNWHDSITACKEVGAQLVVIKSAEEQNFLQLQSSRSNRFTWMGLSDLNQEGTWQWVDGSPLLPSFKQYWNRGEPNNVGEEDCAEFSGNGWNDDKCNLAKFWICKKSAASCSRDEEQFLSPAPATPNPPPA

As to `COc1cccc2c1C(=O)c1c(O)c3c(c(O)c1C2=O)C[C@@](O)(C(=O)CO)C[C@@H]3O[C@H]1C[C@H](N)[C@H](O)[C@H](C)O1` [Docorubicin, doxorubicin], in assay [1], the “toxicity to CD206 expressing macrophages (Annexin levels, FIG. 17)” value was “no toxicity”. In assay [1] (Annexin-V, overnight), the “apoptosis induction on MOs and in tumor tissue” value was “less effect”. With “dextran 3-[(2-aminoethyl)thio]propyl 17-carboxy-10,13,16-tris(carboxymethyl)-8-oxo-4-thia-7,10,13,16-tetraazaheptadec-1-yl 3-[[2-[[1-imino-2-(D-mannopyranosylthio)ethyl]amino]ethyl]thio]propyl ether complexes [Tilmanocept]”, the “binding to cells in lymph node tissue sections” value in assay [2] is listed as “bind in clusters to a population of DC-SIGN-positive cells”. In addition, the “uptake in KS biopsy tissue culture” value in assay [3] was “uptake co-localized with CD206+ macrophages”. For `NNC(=O)c1ccncc1` [INH, isoniazid], the “lowest concentration at which activity against M.tb is maintained” value in assay [4] is 0.0312 µM.
